24 molecules from patent US7989447B2, “1,5 and 3,6-substituted indole compounds having NOS inhibitory activity” (NeurAxon, Inc., priority 2006, dated 2011) can be followed below.

pIC50: −log10 of the molar value.

Assay [1] addresses human neuronal constitutive NOS (nNOS) (Homo sapiens, UniProt P29475). Kind of assay: nNOS (Human) enzyme assay, radiometric conversion of [3H]L-arginine to [3H]L-citrulline. Conditions: for Ratio e/n: human eNOS / human nNOS; for pIC50: recombinant human enzyme, 37° C., 45 min, read-out: Human nNOS. It is filed as biochemical.
Procedure: To measure enzyme inhibition, a 15 μL solution of a test substance was added to the enzyme assay solution, followed by a pre-incubation time of 15 min at RT. […] The total volume of the reaction mixture was 150 μL in every well. The reactions were carried out at 37° C. for 45 min. The reaction was stopped by adding 20 μL of ice-cold buffer containing 100 mM HEPES, 3 mM EGTA, 3 mM EDTA, pH=5.5. [^3H]L-citrulline was separated by DOWEX (ion-exchange resin DOWEX 50 W X 8-400, SIGMA) and the DOWEX was removed by spinning at 12,000 g for 10 min in the centrifuge. […] All assays were performed at least in duplicate. Standard deviations were 10% or less.
In assay [2] the target is human endothelial constitutive NOS (eNOS) (Homo sapiens, UniProt P29474). Kind of assay: eNOS (Human) enzyme assay, radiometric conversion of [3H]L-arginine to [3H]L-citrulline. Conditions: recombinant human enzyme, 37° C., 45 min; read-out: Human eNOS. It is filed as biochemical. The method, then:
Recombinant human inducible NOS (iNOS), human endothelial constitutive NOS (eNOS) or human neuronal constitutive NOS(nNOS) were produced in Baculovirus-infected Sf9 cells (ALEXIS). In a radiometric method, NO synthase activity was determined by measuring the conversion of [^3H]L-arginine to [^3H]L-citrulline. To measure iNOS, 10 μL of enzyme was added to 100 μL of 100 mM HEPES, pH=7,4, containing 1 mM CaCl2, 1 mM EDTA, 1 mM dithiotheitol, 1 μM FMN, 1 μM FAD, 10 μM tetrahydrobiopterin, 120 μM NADPH, and 100 nM CaM. To measure eNOS or nNOS, 10 μL of enzyme was added to 100 μL of 40 mM HEPES, pH=7.4, containing 2.4 mM CaCl2, 1 mM MgCl2, 1 mg/mL BSA, 1 mM EDTA, 1 mM dithiothreitol, 1 μM FMN, 1 μM FAD, 10 μM tetrahydrobiopterin, 1 mM NADPH, and 1.2 μM CaM.
To measure enzyme inhibition, a 15 μL solution of a test substance was added to the enzyme assay solution, followed by a pre-incubation time of 15 min at RT. The reaction was initiated by addition of 20 μL L-arginine containing 0.25 μCi of [^3H]arginine/mL and 24 μM L-arginine. The total volume of the reaction mixture was 150 μL in every well. The reactions were carried out at 37° C. for 45 min. The reaction was stopped by adding 20 μL of ice-cold buffer containing 100 mM HEPES, 3 mM EGTA, 3 mM EDTA, pH=5.5. [^3H]L-citrulline was separated by DOWEX (ion-exchange resin DOWEX 50 W X 8-400, SIGMA) and the DOWEX was removed by spinning at 12,000 g for 10 min in the centrifuge. An 70 μL aliquot of the supernatant was added to 100 μL of scintillation fluid and the samples were counted in a liquid scintillation counter (1450 Microbeta Jet, Wallac). […] All assays were performed at least in duplicate.

Sequence of human neuronal constitutive NOS (nNOS) (P29475 whole entry): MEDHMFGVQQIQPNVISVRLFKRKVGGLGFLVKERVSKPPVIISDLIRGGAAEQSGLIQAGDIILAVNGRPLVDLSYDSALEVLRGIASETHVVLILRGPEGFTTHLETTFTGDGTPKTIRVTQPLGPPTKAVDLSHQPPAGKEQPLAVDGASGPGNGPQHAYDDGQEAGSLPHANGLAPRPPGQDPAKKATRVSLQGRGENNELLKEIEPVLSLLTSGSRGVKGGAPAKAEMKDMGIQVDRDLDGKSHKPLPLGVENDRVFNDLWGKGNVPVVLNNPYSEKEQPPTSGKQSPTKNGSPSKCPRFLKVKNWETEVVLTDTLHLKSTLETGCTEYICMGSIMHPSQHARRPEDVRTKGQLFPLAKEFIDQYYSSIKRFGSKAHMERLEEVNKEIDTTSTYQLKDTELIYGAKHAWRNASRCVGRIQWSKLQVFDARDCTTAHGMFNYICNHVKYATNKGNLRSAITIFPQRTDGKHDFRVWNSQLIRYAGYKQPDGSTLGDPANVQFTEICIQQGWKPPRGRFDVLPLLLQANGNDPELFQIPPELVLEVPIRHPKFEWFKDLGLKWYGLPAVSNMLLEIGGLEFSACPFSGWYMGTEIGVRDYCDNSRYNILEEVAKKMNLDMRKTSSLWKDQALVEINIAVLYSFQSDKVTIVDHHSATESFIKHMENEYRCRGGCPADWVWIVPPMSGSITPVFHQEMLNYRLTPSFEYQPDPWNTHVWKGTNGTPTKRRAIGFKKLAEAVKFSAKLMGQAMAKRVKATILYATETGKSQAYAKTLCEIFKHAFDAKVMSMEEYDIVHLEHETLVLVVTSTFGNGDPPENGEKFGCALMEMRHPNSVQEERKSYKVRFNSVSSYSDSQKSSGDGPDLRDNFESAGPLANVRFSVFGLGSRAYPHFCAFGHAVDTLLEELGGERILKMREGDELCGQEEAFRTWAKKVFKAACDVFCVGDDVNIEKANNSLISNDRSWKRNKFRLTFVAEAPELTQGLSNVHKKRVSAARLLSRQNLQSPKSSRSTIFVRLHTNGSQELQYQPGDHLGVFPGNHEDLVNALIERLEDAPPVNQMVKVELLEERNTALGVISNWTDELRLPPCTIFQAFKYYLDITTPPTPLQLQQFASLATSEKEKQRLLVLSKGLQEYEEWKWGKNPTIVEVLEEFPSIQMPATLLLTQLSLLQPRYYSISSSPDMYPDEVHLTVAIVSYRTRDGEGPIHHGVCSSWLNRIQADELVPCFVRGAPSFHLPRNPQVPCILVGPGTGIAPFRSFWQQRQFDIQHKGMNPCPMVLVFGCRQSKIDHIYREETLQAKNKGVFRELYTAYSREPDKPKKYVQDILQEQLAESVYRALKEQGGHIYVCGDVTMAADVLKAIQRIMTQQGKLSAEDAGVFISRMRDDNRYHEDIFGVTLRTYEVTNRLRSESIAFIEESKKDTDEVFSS

As to `CN1CCCC1CCn1c(Cc2ccccc2)cc2cc(NC(=N)c3cccs3)ccc21` (stereo not drawn) [Compound 6, N-(2-benzyl-1-(2-(1-methylpyrrolidin-2-yl)ethyl)-1H-indol-5-yl)thiophene-2-carboximidamide], in assay [1], the Ratio e/n is listed as 41.57 and the pIC50 is 6.72. For the same molecule, in assay [2], the pIC50 was 5.10.
On to `N=C(Nc1ccc2c(c1)cc(-c1ccc([N+](=O)[O-])cc1)n2CCN1CCCCC1)c1cccs1` [Compound 18, N-(2-(4-nitrophenyl)-1-(2-(piperidin-1-yl)ethyl)-1H-indol-5-yl)thiophene-2-carboximidamide], for which the results for the pIC50 in assay [1] and in assay [2] were 6.39 and 4.72, respectively.
`Cc1cc2cc(NC(=N)c3cccs3)ccc2n1CCN(C)C` [Compound 25, N-(1-(2-(dimethylamino)ethyl)-2-methyl-1H-indol-5-yl)thiophene-2-carboximidamide]: in assay [1], the Ratio e/n is given as 3.88 and the pIC50 was 6.09. Also, the pIC50 in assay [2] was 5.50.
For `Cc1cc2cc(NC(=N)c3cccs3)ccc2n1CCN1CCCC1` [Compound 28, N-(2-methyl-1-(2-(pyrrolidin-1-yl)ethyl)-1H-indol-5-yl)thiophene-2-carboximidamide], in assay [1], the Ratio e/n worked out at 7.41 and the pIC50 was 6.70. Also, in assay [2], the pIC50 was 5.83.
The corresponding values for `Cc1cc2cc(NC(=N)c3cccs3)ccc2n1CCC1CCCN1C` (stereo not drawn) [Compound 32, N-(2-methyl-1-(2-(1-methylpyrrolidin-2-yl)ethyl)-1H-indol-5-yl)thiophene-2-carboximidamide] are 20.2, 6.85 and 5.54.
Taken in the same sequence, the figures for `CN1CCCC1CCn1ccc2cc(CNC(=N)c3cccs3)ccc21` (stereo not drawn) [Compound 37, N-((1-(2-(1-methylpyrrolidin-2-yl)ethyl)-1H-indol-5-yl)methyl)thiophene-2-carboximidamide] were 1.24, 4.14 and 4.04.
The corresponding values for `N=C(Nc1ccc2c(ccn2CCCN2CCOCC2)c1)c1cccs1` [Compound 40, N-(1-(3-morpholinopropyl)-1H-indol-5-yl)thiophene-2-carboximidamide] are 9.09, 6.18 and 5.22.
With `N=C(Nc1ccc2c(ccn2CCCNC23CC4CC(CC(C4)C2)C3)c1)c1cccs1` [Compound 42, N-(1-(3-adamantanaminopropyl)-1H-indol-5-yl)thiophene-2-carboximidamide], the Ratio e/n in assay [1] is on record as 8.67. Further, the pIC50 in assay [1] was 6.44; in assay [2], 5.50.
In the case of `CCN1CCCC1CNCCCn1ccc2cc(NC(=N)c3cccs3)ccc21` (stereo not drawn) [Compound 44, N-(1-(3-((1-ethylpyrrolidin-2-yl)methylamino)propyl)-1H-indol-5-yl)thiophene-2-carboximidamide], the pIC50 in assay [2] was 5.20.
`N=C(Nc1ccc2c(ccn2CCCNC2CC2)c1)c1cccs1` [Compound 46, N-(1-(3-(cyclopropylamino)propyl)-1H-indol-5-yl)thiophene-2-carboximidamide]: the Ratio e/n in assay [1] worked out at 32.53. Besides, the results for the pIC50 in assay [1] and in assay [2] were 6.59 and 5.06, respectively.
Take `CN(C)CCCn1ccc2cc(NC(=N)c3cccs3)ccc21` [Compound 48, N-(1-(3-(dimethylamino)propyl)-1H-indol-5-yl)thiophene-2-carboximidamide]: in assay [2], the pIC50 is 4.91.
As for `CN1CCCC1CCn1ccc2cc(NC(=N)c3ccco3)ccc21` (stereo not drawn) [Compound 53, N-(1-(2-(1-methylpyrrolidin-2-yl)ethyl)-1H-indol-5-yl)furan-2-carboximidamide], the pIC50 in assay [2] was 4.86.
Same read-out and setting: the figure for `CN1CCCC1CCn1ccc2cc(NC(=N)c3cccs3)ccc21` (stereo not drawn) [Compound 56, N-(1-(2-(1-methylpyrrolidin-2-yl)ethyl)-1H-indol-5-yl)thiophene-2-carboximidamide] is 5.35.
As to `CN1CCCCC1CCn1ccc2cc(NC(=N)c3cccs3)ccc21` (stereo not drawn) [Compound 62, N-(1-(2-(1-methylpiperidin-2-yl)ethyl)-1H-indol-5-yl)thiophene-2-carboximidamide], in assay [1], the Ratio e/n was determined as 68.01 and the pIC50 is 7.05. Moreover, the pIC50 in assay [2] was 5.19.
Taken in the same sequence, the figures for `N=C(Nc1ccc2c(ccn2-c2cccnc2)c1)c1cccs1` [Compound 74, N-(1-(pyridin-3-yl)-1H-indol-5-yl)thiophene-2-carboximidamide] were 6.74, 6.42 and 5.59.
As for `N=C(Nc1ccc2c(ccn2-c2ccc(N)nc2)c1)c1cccs1` [Compound 77, N-(1-(6-aminopyridin-3-yl)-1H-indol-5-yl)thiophene-2-carboximidamide], in assay [1], the Ratio e/n came to 5.54 and the pIC50 is 6.26. Besides, the pIC50 in assay [2] was 5.51.
With `N=C(Nc1ccc2c(ccn2C2CCOCC2)c1)c1cccs1` [Compound 90, N-(1-(tetrahydro-2H-pyran-4-yl)-1H-indol-5-yl)thiophene-2-carboximidamide], in assay [1], the Ratio e/n amounted to 9.34 and the pIC50 is 5.98. In assay [2], the pIC50 was 5.01.
For the molecule `CN(C)CCn1ccc2cc(NC(=N)c3cccs3)ccc21` [Compound 93, N-(1-(2-(dimethylamino)ethyl)-1H-indol-5-yl)thiophene-2-carboximidamide], in assay [1], the Ratio e/n is 21.3 and the pIC50 was 6.77. The pIC50 in assay [2] was 5.43.
With `N=C(Nc1ccc2c(ccn2CCN2CCCCC2)c1)c1cccs1` [Compound 96, N-(1-(2-(piperidin-1-yl)ethyl)-1H-indol-5-yl)thiophene-2-carboximidamide], in assay [1], the Ratio e/n was 53.80 and the pIC50 is 6.77. Further, in assay [2], the pIC50 is 5.04.
Regarding `CN1CCC[C@H]1Cn1ccc2cc(NC(=N)c3cccs3)ccc21` [Compound 104, (S)—N-(1-((1-methylpyrrolidin-2-yl)methyl)-1H-indol-5-yl)thiophene-2-carboximidamide], the Ratio e/n in assay [1] came to 30.2. Besides, the pIC50 in assay [1] is 6.96; in assay [2] it was 5.47.
The corresponding values for `N=C(Nc1ccc2c(C3=CN4CCC3CC4)c[nH]c2c1)c1cccs1` [Compound 111, N-(3-(1-azabicyclo[2.2.2]oct-2-en-3-yl)-1H-indol-6-yl)thiophene-2-carboximidamide] are 30.19, 5.82 and 4.34.
The corresponding values for `CN1CCC(c2c[nH]c3cc(NC(=N)c4cccs4)ccc23)C1` (stereo not drawn) [Compound 117, N-(3-(1-methylpyrrolidin-3-yl)-1H-indol-6-yl) thiophene-2-carboximidamide] are 35.45, 6.70 and 5.15.
Taken in the same sequence, the figures for `CNC1CCC(c2c[nH]c3cc(NC(=N)c4cccs4)ccc23)CC1` (stereo not drawn) [Compound 123, N-(3-(4-(methylamino)cyclohexyl)-1H-indol-6-yl)thiophene-2-carboximidamide] were 28.96, 6.49 and 5.02.
On to `CNC1CC=C(c2c[nH]c3cc(NC(=N)c4cccs4)ccc23)CC1` (stereo not drawn) [Compound 125, N-(3-(4-(methylamino)cyclohex-1-enyl)-1H-indol-6-yl)thiophene-2-carboximidamide], for which the Ratio e/n in assay [1] was found to be 46.4. Besides, the pIC50 in assay [1] was 6.35; in assay [2], 4.68.
